In ChEMBL document CHEMBL1201862, “PubChem BioAssay data set” (2004):
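Compound exposure: 48 hours, 5 concentrations, 96-well plates. GI50: concentration for 50% inhibition of growth.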 The source made the active and inactive calls. Rule as the data show it: active = GI50 up to about 1.1 µM and inactive = higher.

Key:
Assay in all cases: growth of human tumour cells (NCI), 48 h
[1] = test system: HCT-15
[2] = test system: SN12C
[3] = test system: SK-MEL-2
[4] = test system: CAKI-1
[5] = test system: MCF7
[6] = test system: T47D
[7] = test system: SNB-75
[8] = test system: UO-31
[9] = test system: OVCAR-5
[10] = test system: MDA-N
[11] = test system: SW-620
[12] = test system: SK-OV-3
[13] = test system: 786-0
[14] = test system: SK-MEL-5
[15] = test system: HL-60
[16] = test system: OVCAR-3
[17] = test system: U-251
[18] = test system: PC-3
[19] = test system: HT-29
[20] = test system: OVCAR-8

Row | Structure (SMILES) | GI50 [1] | GI50 [2] | GI50 [3] | GI50 [4] | GI50 [5] | GI50 [6] | GI50 [7] | GI50 [8] | GI50 [9] | GI50 [10] | GI50 [11] | GI50 [12] | GI50 [13] | GI50 [14] | GI50 [15] | GI50 [16] | GI50 [17] | GI50 [18] | GI50 [19] | GI50 [20]
1 | C=C1[C@@](C)([C@@H]2CCCS2)[C@H]2C(C)=C[C@]1(C)n1c(=O)n(-c3ccccc3)c(=O)n12 | > 100 µM | > 100 µM (inactive) | > 100 µM (inactive) | > 100 µM (inactive) | > 100 µM (inactive) | > 100 µM (inactive) | 46.5 µM (inactive) | > 100 µM (inactive) | > 100 µM (inactive) | > 100 µM (inactive) | > 100 µM (inactive) | > 100 µM (inactive) | > 100 µM (inactive) | > 100 µM (inactive) | > 100 µM (inactive) | > 100 µM (inactive) | > 100 µM (inactive) | > 100 µM (inactive) | > 100 µM (inactive) | 
2 | Cc1ccc2nc(-c3ccc(C(C)(C)C)cc3)oc(=O)c2c1 | 16.4 µM | 38.8 µM (inactive) | 26.7 µM (inactive) | 19.4 µM (inactive) | 23.9 µM (inactive) | 21.4 µM (inactive) | 14.2 µM (inactive) | 26.6 µM (inactive) | 28.8 µM (inactive) | 22.9 µM (inactive) | 26.3 µM (inactive) | 22.9 µM (inactive) | 25.1 µM (inactive) | 14.3 µM (inactive) | 16.6 µM (inactive) | 21.4 µM (inactive) | 16.2 µM (inactive) | 20.7 µM (inactive) | 19.6 µM (inactive) | 16.9 µM (inactive)
3 | COc1cc([C@@]23OC[C@@H]4[C@@H](OC[C@@H]42)c2cc4c(cc23)OCO4)cc(OC)c1OC | < 0.01 µM |  | < 0.01 µM (active) | < 0.0157 µM (active) | < 0.01 µM (active) | 50.8 µM (inactive) | < 0.01 µM (active) | < 0.01 µM (active) | > 48.2 µM (inactive) | < 0.01 µM (active) | < 0.01 µM (active) | < 0.01 µM (active) | < 0.01 µM (active) | < 0.01 µM (active) | < 0.01 µM (active) | < 0.01 µM (active) | < 0.01 µM (active) | < 0.01 µM (active) | < 0.01 µM (active) | < 0.01 µM (active)
4 | COc1cccc(-c2cc(=O)c3cc(N4CCCCC4)ccc3[nH]2)c1 | < 0.0167 µM | 0.0332 µM (active) | 0.521 µM (active) | < 0.01 µM (active) | < 0.01 µM (active) | > 100 µM (inactive) | 0.6 µM (active) | 7.29 µM (inactive) |  | < 0.01 µM (active) | < 0.0145 µM (active) | 0.0316 µM (active) | < 0.0119 µM (active) | < 0.01 µM (active) | < 0.01 µM (active) | < 0.01 µM (active) | < 0.0147 µM (active) | < 0.0129 µM (active) | < 0.0129 µM (active) | 0.026 µM (active)
5 | CCOC(=O)C(C)(C)C(O)C(C)C (stereo not given) | > 100 µM | > 100 µM (inactive) | > 100 µM (inactive) | > 100 µM (inactive) | > 100 µM (inactive) | > 100 µM (inactive) | > 100 µM (inactive) | > 100 µM (inactive) | > 100 µM (inactive) | > 100 µM (inactive) | > 100 µM (inactive) | > 100 µM (inactive) | > 100 µM (inactive) | > 100 µM (inactive) | > 100 µM (inactive) | > 100 µM (inactive) | > 100 µM (inactive) | > 100 µM (inactive) | > 100 µM (inactive) | > 100 µM (inactive)
6 | O=[N+]([O-])C(/C=C(\Cl)[N+](=O)[O-])=C(N1CCOCC1)N1CCOCC1 | > 100 µM | > 100 µM (inactive) | > 100 µM (inactive) | 27.4 µM (inactive) | 17.6 µM (inactive) | 24.5 µM (inactive) | 50.5 µM (inactive) | 36.6 µM (inactive) | 21.2 µM (inactive) | > 100 µM (inactive) |  | > 100 µM (inactive) | 16.7 µM (inactive) | > 100 µM (inactive) | 18.4 µM (inactive) | 19.7 µM (inactive) | 24.6 µM (inactive) | > 100 µM (inactive) | 33.4 µM (inactive) | > 100 µM (inactive)
7 | CSc1n[n+](C)cc(N)c1N | > 100 µM | > 100 µM (inactive) | > 100 µM (inactive) | > 100 µM (inactive) | > 100 µM (inactive) | > 100 µM (inactive) | > 100 µM (inactive) | 88.9 µM (inactive) | > 100 µM (inactive) | > 100 µM (inactive) | > 100 µM (inactive) | > 100 µM (inactive) | > 100 µM (inactive) | > 100 µM (inactive) | 51.9 µM (inactive) | > 100 µM (inactive) | > 100 µM (inactive) | > 100 µM (inactive) | > 100 µM (inactive) | > 100 µM (inactive)
8 | COc1nn(Cc2ccccn2)c2ccc([N+](=O)[O-])cc12 | 62.7 µM | > 100 µM (inactive) | 51.1 µM (inactive) | 51.2 µM (inactive) | > 100 µM (inactive) | 77.8 µM (inactive) | 17.3 µM (inactive) | 32.4 µM (inactive) | > 100 µM (inactive) | 27.8 µM (inactive) | 63 µM (inactive) | > 100 µM (inactive) | > 100 µM (inactive) | 30.5 µM (inactive) | 20.2 µM (inactive) | > 100 µM (inactive) | > 100 µM (inactive) | > 100 µM (inactive) | 70.6 µM (inactive) | > 100 µM (inactive)
9 | COc1ccccc1N1CCN(CCCN2C(C(=O)c3ccccc3)=C(O)c3c(C)cc(C)nc3S2(=O)=O)CC1 | 56.6 µM | 63 µM (inactive) | > 100 µM (inactive) | 79.6 µM (inactive) | 96.4 µM (inactive) | > 100 µM (inactive) | 5.87 µM (inactive) | 27.8 µM (inactive) | 92.7 µM (inactive) | > 100 µM (inactive) | 89.7 µM (inactive) | 85.9 µM (inactive) | 39.5 µM (inactive) | 51.9 µM (inactive) | 79.4 µM (inactive) | 55 µM (inactive) | 58.6 µM (inactive) | > 100 µM (inactive) | 34.8 µM (inactive) | 64.1 µM (inactive)
10 | c1ccc(C2C3=C(c4ccccc4CC3)N3c4cc5c(cc4=NC34CCCCC24)Nc2ccccc2N=5)cc1 (stereo not given) | 8.39 µM | > 10 µM (inactive) | > 10 µM (inactive) | > 10 µM (inactive) | 7.69 µM (inactive) | 7.53 µM (inactive) | 9.27 µM (inactive) | 6.55 µM (inactive) | > 10 µM (inactive) | 5.83 µM (inactive) | 9.64 µM (inactive) | > 10 µM (inactive) | 7.14 µM (inactive) | > 10 µM (inactive) | 3.77 µM (inactive) | > 10 µM (inactive) | > 10 µM (inactive) | 6.92 µM (inactive) | 7.87 µM (inactive) | > 10 µM (inactive)
11 | C[N+](C)(C)CC1CCc2ccccc2C1=O (stereo not given) | 3.04 µM | 8.43 µM (inactive) | 16.7 µM (inactive) | 4.97 µM (inactive) | 1.64 µM (inactive) | 6.53 µM (inactive) | 16.7 µM (inactive) | 18.3 µM (inactive) | 16.1 µM (inactive) | 5.86 µM (inactive) | 1.68 µM (inactive) | 18.6 µM (inactive) | 6.46 µM (inactive) | 16.2 µM (inactive) | 2.52 µM (inactive) | 4.49 µM (inactive) | 5.64 µM (inactive) | 15.5 µM (inactive) | 6.03 µM (inactive) | 17.1 µM (inactive)
12 | CN(CCCNC(=O)c1nn(-c2ccccc2)c2c1ccc1ccccc12)CCCNC(=O)c1nn(-c2ccccc2)c2c1ccc1ccccc12 | 1.84 µM | 1.85 µM (inactive) | 1.69 µM (inactive) | 1.61 µM (inactive) | 1.8 µM (inactive) | 1.82 µM (inactive) | 1.64 µM (inactive) | 1.52 µM (inactive) | 2.3 µM (inactive) | 1.68 µM (inactive) | 1.95 µM (inactive) | 1.83 µM (inactive) | 2.01 µM (inactive) | 1.77 µM (inactive) | 0.221 µM (active) | 1.5 µM (inactive) | 1.6 µM (inactive) | 1.52 µM (inactive) | 1.84 µM (inactive) | 1.85 µM (inactive)
13 | CCCCCCCCCCCCCCCCCCOP(=O)([O-])OC1CC[N+](C)(C)CC1 [PERIFOSINE] | 2.48 µM | 4.6 µM (inactive) | 13.8 µM (inactive) | 3.6 µM (inactive) | 15.7 µM (inactive) | 17.9 µM (inactive) | 5.14 µM (inactive) | 8.91 µM (inactive) | 2.52 µM (inactive) | 12.4 µM (inactive) | 8.05 µM (inactive) | 5.64 µM (inactive) | 2.73 µM (inactive) | 15.8 µM (inactive) | 1.19 µM (inactive) | 13.2 µM (inactive) | 12.4 µM (inactive) | 0.873 µM (active) | 3.56 µM (inactive) | 14.7 µM (inactive)
14 | C=C(C)C(=O)OC1C(C(C)CCCO)=C(CO)CC2OC(=O)C(=C)C21 (stereo not given) | 13.3 µM | 16.1 µM (inactive) | 20.5 µM (inactive) | 17.1 µM (inactive) | 11 µM (inactive) | 17.4 µM (inactive) | 10.4 µM (inactive) |  | 22.1 µM (inactive) | 16.7 µM (inactive) | 14.7 µM (inactive) | 29 µM (inactive) | 4.13 µM (inactive) | 14 µM (inactive) | 6.41 µM (inactive) | 17.6 µM (inactive) | 20.2 µM (inactive) | 24.4 µM (inactive) | 18.3 µM (inactive) | 18.8 µM (inactive)
